This is an account of results in patent publication US20150266850A1 (E.I.DU PONT DE NEMOURS AND COMPANY, priority 2012, published 2015).

SMILES strings stand for the structures.

One data set deals with Septoria nodorum. Kind of data set: Test D: wheat glume blotch, preventive spray on wheat seedlings, visual disease rating. The format is in vivo. The note with it: Parastagonospora nodorum, 216 h, 100 = 100% disease control. A digest of the protocol:
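Preventive test: wheat seedlings sprayed to run-off with compound suspension (acetone/water with 250 ppm Trem 014; 200 ppm, some at 40 or 50 ppm), inoculated with Septoria nodorum next day. Held 48 h saturated at 20° C, then 7 days at 20° C; visual rating 0-100% disease control versus controls.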

A further data set concerns Botrytis cinerea. Kind of data set: Test E: tomato botrytis, preventive spray on tomato seedlings, visual disease rating. The data set is classed as in vivo. The note with it: Botrytis cinerea, 120 h, 100 = 100% disease control. A digest of the protocol:
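Compounds in acetone/water (50/50) with 250 ppm Trem 014, sprayed to run-off on tomato seedlings at 200 ppm (≈800 g/ha) unless marked 40 or 50 ppm. Inoculated next day with B. cinerea spores; 48 h saturated atmosphere at 20°C, then 3 days at 27°C; visual rating, 100 = full control vs controls.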

The next data set has as its system Septoria tritici. Kind of data set: Test C: wheat leaf blotch, preventive spray on wheat seedlings, visual disease rating. The data set is classed as in vivo. The note with it: Zymoseptoria tritici, 504 h, 100 = 100% disease control. In outline:
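Compounds in acetone (11% of final volume) suspended in acetone/water 50/50 with 250 ppm Trem® 014; 200 ppm (≈800 g/ha), some at 40 or 50 ppm, sprayed to run-off. Septoria tritici inoculated next day; 48 h saturated at 24° C., then 19 days at 20° C.; visual rating, 0–100% control vs untreated.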

The test system of data set [1] is Erysiphe graminis f. sp. tritici. The data set is described as follows: Test A: wheat powdery mildew, preventive spray on wheat seedlings, visual disease rating. The data set is classed as in vivo. The note with it: Blumeria graminis, 192 h, 100 = 100% disease control. In outline: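 Wheat seedlings sprayed to run-off with compound in acetone/water with 250 ppm Trem 014 (200 ppm ≈ 800 g/ha; some at 40 or 50 ppm), inoculated next day with spore dust. After 8 days at 20° C, disease control rated visually, 0–100% relative to controls.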

Data set [2] relates to Puccinia recondita f sp. tritici. The data set is described as follows: Test B: wheat leaf rust, preventive spray on wheat seedlings, visual disease rating. The format is in vivo. The note with it: 192 h, 100 = 100% disease control. In outline: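 Test suspension in acetone/water 50/50 with 250 ppm Trem® 014, sprayed to run-off on wheat seedlings at 200 ppm (≈800 g/ha), or 40 or 50 ppm where marked. Inoculated next day with spores, held 24 h saturated at 20° C, then 7 days at 20° C; disease control rated visually, 0–100 versus controls.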

Data set [3] can be described thus: Photostability Example: aqueous photolysis under xenon arc lamp simulating natural sunlight for 24 hours, percent remaining relative to dark controls. The note with it: 0.670 μg/mL in 80/20 10 mM pH 7 phosphate buffer/acetonitrile, xenon arc lamp 24 hours. The format is physicochemical. On the procedure: Aqueous photolysis data is a simple proxy for photostability under field conditions. The following aqueous photolysis data supports the enhanced photostability of the tolyl fungicides of the present invention.
Test compound (0.670 μg/mL) dissolved in 80/20 10 mM pH 7 phosphate buffer/acetonitrile is added to 2-mL borosilicate glass HPLC vials. The addition of 20% acetonitrile is intended to ensure solubility of compounds with low aqueous solubility. Samples are exposed to light in an Atlas Ci65 Burner photolysis chamber fitted with a xenon arc lamp (6500 W) to simulate natural sunlight for 24 hours and compared with samples wrapped in aluminum foil to protect them from light under the same conditions. The 24-hour irradiation is equivalent to ˜2.6 days of average Delaware summer sunlight exposure. Samples are analyzed by HPLC and results are reported as percent remaining based on peak area relative to the dark controls.

On to `COC(=O)NCc1cc(-c2ncn(-c3ccc(OC)cc3Cl)n2)ccc1C` [Compound 78], for which the melting point fell in the range of 145 to 148 °C. In addition, in the data set with Septoria nodorum, the pest or weed control at 40 ppm amounted to 100%. For the same compound, the pest or weed control at 40 ppm in the data set with Botrytis cinerea was 68%. The compound also returned a pest or weed control at 40 ppm in the data set on Septoria tritici of 93%. The same compound returned a pest or weed control at 40 ppm in data set [1] of 99%. Besides, the pest or weed control at 40 ppm in data set [2] turned out to be 100%.

For `COC(=O)NCc1cc(-n2ccc(-c3ccc(Cl)cc3OC)n2)ccc1C` [Compound 11, methyl N-[[5-[3-(4-chloro-2-methoxyphenyl)-1H-pyrazol-1-yl]-2-methylphenyl]-methyl]carbamate], the melting point is 126 to 127 °C. In the data set on Septoria nodorum, the pest or weed control at 200 ppm is 100%. This compound also yielded a pest or weed control at 200 ppm in the data set on Botrytis cinerea of 56%. The compound further yielded a pest or weed control at 200 ppm in the data set on Septoria tritici of 100%. In data set [1], this compound yielded a pest or weed control at 200 ppm of 100%. Also, in data set [2], the pest or weed control at 200 ppm is 100%.

The compound `COC(=O)NCc1cc(-n2ccc(-c3ccc(Cl)cc3Cl)n2)ccc1C` [Compound 31, methyl N-[[5-[3-(2,4-dichlorophenyl)-1H-pyrazol-1-yl]-2-methylphenyl]-methyl]carbamate] registered a melting point of 101 to 103 °C. The same compound yielded a pest or weed control at 200 ppm with Septoria nodorum of 100%. For the same compound, the pest or weed control at 200 ppm in the data set on Botrytis cinerea was 16%. The pest or weed control at 200 ppm with Septoria tritici was found to be 100%. The same compound gave a pest or weed control at 200 ppm in data set [1] of 100%. The same compound gave a pest or weed control at 200 ppm in data set [2] of 100%.

In turn, `COC(=O)NCc1cc(-n2ncc(-c3ccc(OC)cc3OC)n2)ccc1C` [Compound 17, methyl N-[[5-[4-(2,4-dimethoxyphenyl)-2H-1,2,3-triazol-2-yl]-2-methylphenyl]methyl]carbamate] showed a melting point of 132 to 135 °C. Also, the pest or weed control at 200 ppm with Septoria nodorum worked out at 100%. Also, in the data set on Botrytis cinerea, the pest or weed control at 200 ppm stood at 33%. This compound registered a pest or weed control at 200 ppm in the data set with Septoria tritici of 100%. For the same compound, the pest or weed control at 200 ppm in data set [1] came out at 100%. In addition, the “% Cmpd Remaining” value in data set [3] is listed as 30%. Besides, the pest or weed control at 200 ppm in data set [2] amounted to 100%.

With `COC(=O)NCc1cc(-c2ncn(-c3ccc(OC)cc3F)n2)ccc1C` [Compound 79], the melting point lay within 164 to 166 °C. The pest or weed control at 40 ppm with Septoria nodorum was 100%. This compound also had a pest or weed control at 40 ppm in the data set with Botrytis cinerea of 76%. In the data set on Septoria tritici, this compound had a pest or weed control at 40 ppm of 95%. Further, the pest or weed control at 40 ppm in data set [1] is 100%. This compound also yielded a pest or weed control at 40 ppm in data set [2] of 100%.

`COC(=O)NCc1cc(-c2ccn(-c3ccc(OC)cc3C)n2)ccc1C` [Compound 18, methyl N-[[5-[1-(4-methoxy-2-methylphenyl)-1H-pyrazol-3-yl]-2-methylphenyl]methyl]carbamate] came in with a melting point of 117 to 120 °C. In the data set with Botrytis cinerea, this compound returned a pest or weed control at 200 ppm of 44%. Besides, in the data set on Septoria tritici, the pest or weed control at 200 ppm was found to be 100%. The pest or weed control at 200 ppm in data set [1] stood at 100%. Further, the “% Cmpd Remaining” value in data set [3] is recorded as 98%. The same compound displayed a pest or weed control at 200 ppm in data set [2] of 100%.

With `COC(=O)NCc1cc(-n2ccc(-c3ccc(OC)cc3C)n2)ccc1C` [Compound 10, methyl N-[[5-[3-(4-methoxy-2-methylphenyl)-1H-pyrazol-1-yl]-2-methylphenyl]-methyl]carbamate], the melting point lay in the range of 97 to 99 °C. In the data set on Septoria nodorum, the pest or weed control at 200 ppm was 100%. Also, the pest or weed control at 200 ppm in the data set on Botrytis cinerea turned out to be 97%. Besides, in the data set with Septoria tritici, the pest or weed control at 200 ppm stood at 100%. The same compound showed a pest or weed control at 200 ppm in data set [1] of 100%. For the same compound, the “% Cmpd Remaining” value in data set [3] is given as 97%. In data set [2], this compound showed a pest or weed control at 200 ppm of 100%.

`COC(=O)NCc1cc(-c2ncn(-c3ccc(F)cc3F)n2)ccc1C` [Compound 117]: the melting point was 156 to 159 °C. Further, in data set [1], the pest or weed control at 200 ppm came out at 100%. The same compound came in with a pest or weed control at 200 ppm in data set [2] of 100%.

In turn, `COC(=O)NCc1cc(-c2ncn(-c3ccc(OC)cc3OC)n2)ccc1C` [Compound 54] came in with a melting point of 174 to 177 °C. In the data set on Septoria nodorum, the pest or weed control at 40 ppm is 100%. Besides, the pest or weed control at 40 ppm in the data set with Botrytis cinerea stood at 49%. The compound further returned a pest or weed control at 40 ppm in the data set with Septoria tritici of 49%. This compound also displayed a pest or weed control at 40 ppm in data set [1] of 99%. In addition, in data set [2], the pest or weed control at 40 ppm is 100%.
